According to patent US20090247495A1, “CU[…] AND USES THEREOF” (priority 2007, published 2009):

Tests used:
K562 cells = test: Flow cytometry for apoptosis analysis (Annexin V / PI), K562; type: cell-based, human; details: 80 nM, 48 hours
Experimental: 10^5/ml K562 cells were treated with cucurbitacin B in the presence of complete medium containing 10% FBS for 48 hours. The changes in cell morphology were visualized using Leica DMIL (Leica Microsystem). Cells were harvested and rinsed twice with ice-cold PBS (pH7.4) and a total 2.5×10^5 K562 cells were stained with 10 μl Annexin V and 10 μl propidium iodide in 100 μl 1×binding buffer for 15 minutes in dark and then subjected to apoptosis analysis with FACSCalibar Flow cytometer system (FACS Calibur BD Flow Cytometer). • 6.1.5 Flow Cytometry for Cell Cycle Analysis
Appropriate number of cell density were seeded into T-25 culture flask and treated with different doses of cucurbitacin B for 2 days. The apoptotic effects of cucurbitacin B on the cells were detected using Flow Cytometry analysis after stained with Anx.V and PI for 15 minutes. […] Cucuribitacin B induced apoptosis in a dose dependent manner, among them, 80 nM induced the highest apoptotic effect in K562 cells, with over 50% cells in apoptotic population and 10% cells in the necrotic population (late apoptotic and necrotic phase). The effect of cucurbitacin B on apoptosis and cell cycle profile in K562 cells were analyzed using flow cytometry, as depicted in FIG. 3.

HL60 and U937 cells = test: Cell differentiation: CD11b expression by flow cytometry; type: cell-based, human; details: 96-hour treatment
Experimental: HL60 and U937 cells were incubated with vary doses of cucurbitacin B for 96 hours at 37° C. For analysis of cell differentiaion, cells were then incubated with either R-phycoerythrin-conjugated murine anti-human CD11b antibody (DAKO, Carpinteria, Calif.). For analysis of cell cycle, cells were washed and fixed with chilled methanol, and incubated on ice for 30 minutes prior to staining with propidium iodide. All analyses were performed by flow cytometry.
Following a 96-hour treatment with cucurbitacin B, HL60 (FIG. 14A) and U937 (FIG. 14B) cells were incubated with RPE-conjugated CD11b-specific antibody (dark grey) or RPE-conjugated IgGI control antibody (light grey), and flow cytometry was performed.

Prostate cancer = test: SRB growth inhibition, prostate cancer lines of the NCI panel; type: cell-based; details: Homo sapiens, 48 hours
Description: Human cancer cell lines from the 59-NCI Cancer Cell Line Panel including leukemia, melanoma and cancers of breast, brain, colon, lung, ovary, prostate and kidney, were purchased from the National Institute of Cancer (USA). The growth inhibition (GI50) of these cell lines treated with cucurbitacin B and cucurbitacin D in various concentrations was investigated.
59 human cancer cell lines were maintained in RPMI 1640 (Invitrogen Life Technologies, CA, USA) supplemented with 5% Fetal Bovine Serum, 2 mM L-glutamine and 1% Penicillin/Streptomycin (Invitrogen Life Technologies) at 37° C. with 5% CO2. All chemicals were purchased from Sigma (St. Louis, Mo., USA) unless specified otherwise.
Sulforhodamine B (SRB) assay was applied to determine the cytostatic effect of cucurbitacin B and cucurbitacin D. SRB is a dye that binds to cellular proteins and will be dissolved in base. The biomass of total protein can be measured at 520 nm using a plate reader.
Cells were inoculated into 96-well microtiter plates including “Time zero” (Tz) plates in 100 μl at cell concentrations from 5000 to 40,000 cells per well according to NCI guideline. The cells were incubated at 37° C. with 5% CO2 for 24 hours. […] Bound SRB was solubilized with 100-200 ul per well of 10 mM trizma base and absorbance was measured at a wavelength of 520 nm. The percentage of growth inhibition was calculated as follows: […]

PARP = test: Western blot of PARP cleavage in HL60 cells; type: cell-based, human
Experimental: (§1) Control cells, as well as cells treated with cucurbitacin B or cucurbitacin D, were harvested and collected by centrifugation. Whole cell extracts were then prepared by lysing the cells using 4% sodium dodecyl sulfate (SDS) gel sample buffer. Cell extracts were boiled for 10 min and chilled on ice, subjected to 12% SDS-polyacrylamide gel electrophoresis, and transferred to a PVDF membrane. Each membrane was cut into to two pieces with one piece incubated at 4° C. overnight with antibodies against cell cycle signaling proteins, such as ERK, phosphorlated-ERK, p38, phosphorlated-p38, Cyclin E, Retinoblastoma, phosphalated-Retinoblastoma and c-myc, and apoptotic protein (PARP). β-actin was used as a control for protein loading. All antibodies were obtained from Cell signaling Technologies (USA). Then membranes were incubated at 37° C. for 1 h with secondary antibody conjugated with peroxidase, and the signal was detected using chemiluminescence detection reagent. The relative protein level was calculated as the ratio of the optical density of the protein of interest to that of β-actin.

MAPK signaling pathway = test: Western blot of MAPK / cell cycle signaling proteins in HL60 cells; type: cell-based, human
Experimental: as §1

[1] = tested on: human pancreatic cancer cell line SW; test: MTT cell cytotoxicity assay, SW pancreatic cancer cell line; type: cell-based; details: 48 hours
Experimental: A human pancreatic cancer cell line SW was purchased from Institute of Biochemistry and Cell Biology, Shanghai Institutes for Biological Sciences, Chinese Academy of Sciences (SIBCB, CAS, China). SW cell was grown in RPMI 1640 medium supplemented with 10% FBS and maintained in a humidified 5% CO2 atmosphere at 37° C. and the culture medium was changed once in 2 days.
The cytotoxic effect of CuB on SW cell was determined using MTT (3-[4,5-dimethylthiazol-2-yl]-2,5-diphenyl tetrazolium bromide) labeled cell cytotoxicity assay. A total of 1×10^4 cells were seeded into a 96-well plate for 24 hours prior to cucurbitacin B (CuB) treatment. They were then treated with different dosages of CuB for 48 hours. After the treatment, 20 μl of MTT (5 mg/ml) was added to each well and incubated for 4 hrs. Then the medium was discarded and 100 μl of dimethyl sulfoxide was added. The absorbance at 570 nm was then measured by FLUOstar OPTIMA equipment (BMG, LABTECH GmbH, Germany). The percentage of inhibition against different dosages of CuB were plotted using the Prism software and the 50% inhibition concentration (IC50) were obtained.

Which results are given for `CC(=O)OC(C)(C)/C=C/C(=O)[C@](C)(O)C1[C@H](O)C[C@@]2(C)C3CC=C4C(C[C@H](O)C(=O)C4(C)C)[C@]3(C)C(=O)C[C@]12C` (stereo partly shown) [cucurbitacin B]?
cells in apoptotic population (K562 cells): over 50%; cells in the necrotic population (late apoptotic and necrotic phase) (K562 cells): 10%; expression of cell surface marker CD11b (HL60 and U937 cells): enhanced expression; GI50 (Prostate cancer): 17 nM; apoptosis marker PARP (PARP): cleavage of PARP; regulation of ERK, cyclin E, retinoblastoma phosphorylation and c-myc (MAPK signaling pathway): ERK activation, followed by cyclin E down-regulation, inhibition of retinoblastoma's phosphorylation, and ultimately down-regulation of c-myc; IC50 [1]: ~274 nM
